# Measurements taken from patent US10010547B2 (CASCADIAN THERAPEUTICS, INC., priority 2014, dated 2018).
# Counter-ions that a name gives are not always drawn. Like-named read-outs stand apart in the source and are kept apart here.
# Experiments:
# MIA PaCa-2 cells = assay: Gemcitabine Combination Cell Assay (Cell Titer Glo); assay type: cell-based; details: for IC50: Homo sapiens; for 10xLS: approximate concentration of Chk1 inhibitor that results in a 10-fold reduction in the IC50 of gemcitabine alone; for 2xLS: approximate concentration of Chk1 inhibitor that results in a two-fold reduction in the IC50 of gemcitabine alone
# How it was run: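 MIA PaCa-2 cells were treated 72 h with half-log dilutions of Chk1 inhibitor (top 3000 nM) and gemcitabine (top 100 nM), alone and in full matrix; viability by CellTiter-Glo luminescence. IC50s from four-parameter fit; Chk1 inhibitor concentrations giving two- and ten-fold lowering of gemcitabine IC50 were estimated.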
# Chk-1 kinase = Chk-1 kinase (Homo sapiens (Human), UniProt O14757); assay: Chk-1 Kinase Inhibiting Activity (33P-ATP filter assay, CHKtide substrate); assay type: biochemical
# Chk-1 kinase, sequence (O14757 whole entry): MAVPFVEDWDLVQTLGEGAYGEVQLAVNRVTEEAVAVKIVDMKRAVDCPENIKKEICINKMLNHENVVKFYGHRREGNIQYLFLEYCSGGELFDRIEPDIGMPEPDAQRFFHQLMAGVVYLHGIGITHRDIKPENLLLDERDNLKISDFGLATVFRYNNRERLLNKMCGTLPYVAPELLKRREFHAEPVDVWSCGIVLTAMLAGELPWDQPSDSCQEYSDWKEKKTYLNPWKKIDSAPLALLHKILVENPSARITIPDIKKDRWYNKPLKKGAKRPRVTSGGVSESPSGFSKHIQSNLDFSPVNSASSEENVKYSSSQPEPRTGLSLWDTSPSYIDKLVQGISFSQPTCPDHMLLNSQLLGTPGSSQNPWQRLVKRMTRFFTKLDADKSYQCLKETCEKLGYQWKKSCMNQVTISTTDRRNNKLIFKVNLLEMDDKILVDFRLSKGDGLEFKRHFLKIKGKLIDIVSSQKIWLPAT
# How it was run: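 Full-length N-terminal GST-tagged human Chk-1 from insect cells, 0.5 nM final, with 20 μM peptide substrate and 33P-ATP in HEPES pH 7.5 buffer with 1% DMSO. Reaction ran 120 minutes at room temperature; incorporated radioactivity captured on P81 filters and counted for IC50.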
# [1] = Chk1 inhibitor alone, MIA PaCa-2 cells, 72 h, read-out: Chk1 IC50
# [2] = against Chk-1 kinase, read-out: IC50
Compound,IC50 (MIA PaCa-2 cells; [1]) [nM],"10xLS (MIA PaCa-2 cells; MIA PaCa-2 cells, 72 h) [nM]","2xLS (MIA PaCa-2 cells; MIA PaCa-2 cells, 72 h) [nM]",IC50 (Chk-1 kinase; [2]) [nM],IC50 (Chk-1 kinase) [nM],"IC50 (MIA PaCa-2 cells; MIA PaCa-2, 72 h, read-out: Chk1 IC50 (nM)) [nM]"
"COc1cc(CNC2CC2)ccc1-c1cc(Nc2cnc(C#N)cn2)n[nH]1 [Example 91, 5-[[5-[4-[(cyclopropylamino)methyl]-2-methoxy-phenyl]-1H-pyrazol-3-yl]amino]pyrazine-2-carbonitrile]",411,<100,<3,0.33,,
"COc1cc(N2CCN(C)[C@H](C)C2)ccc1-c1cc(Nc2cnc(C#N)cn2)n[nH]1 [Example 92, 5-[[5-[4-[(3R)-3,4-dimethylpiperazin-1-yl]-2-methoxy-phenyl]-1H-pyrazol-3-yl]amino]pyrazine-2-carbonitrile]",132,30,<3,0.016,,
"CCN1CCN(c2ccc(-c3cc(Nc4cnc(C#N)cn4)n[nH]3)c(OC)c2)C[C@H]1C [Example 93, 5-[[5-[4-[(3R)-4-ethyl-3-methyl-piperazin-1-yl]-2-methoxy-phenyl]-1H-pyrazol-3-yl]amino]pyrazine-2-carbonitrile]",99,<30,<3,0.016,,
"COc1cc(O[C@H]2CCN(C(C)C)C2)ccc1-c1cc(Nc2cnc(C#N)cn2)n[nH]1 [Example 94, 5-[[5-[4-[(3S)-1-isopropylpyrrolidin-3-yl]oxy-2-methoxy-phenyl]-1H-pyrazol-3-yl]amino]pyrazine-2-carbonitrile]",475,100,3,0.18,,
"COc1cc(O[C@@H]2CCN(C(C)C)C2)ccc1-c1cc(Nc2cnc(C#N)cn2)n[nH]1 [Example 95, 5-[[5-[4-[(3R)-1-isopropylpyrrolidin-3-yl]oxy-2-methoxy-phenyl]-1H-pyrazol-3-yl]amino]pyrazine-2-carbonitrile]",183,<100,<3,0.15,,
"COc1cc([C@H]2CCN(C)C[C@@H]2F)ccc1-c1cc(Nc2cnc(C#N)cn2)n[nH]1 [Example 96, 5-[[5-[4-[(3(R,S),4(R,S))-3-fluoro-1-methyl-4-piperidyl]-2-methoxy-phenyl]-1H-pyrazol-3-yl]amino]pyrazine-2-carbonitrile]",730,<300,10,,0.4,
"COc1cc(C2CCN(C)CC2(F)F)ccc1-c1cc(Nc2cnc(C#N)cn2)n[nH]1 (stereo not shown) [Example 97, 5-[[5-[4-(3,3-Difluoro-1-methyl-4-piperidyl)-2-methoxy-phenyl]-1H-pyrazol-3-yl]amino]pyrazine-2-carbonitrile hydrochloride]",,300,10,1.1,,1500
"CCN1CCC(c2ccc(-c3cc(Nc4cnc(C#N)cn4)n[nH]3)c(OC)c2)C(F)(F)C1 (stereo not shown) [Example 98, 5-[[5-[4-(1-ethyl-3,3-difluoro-4-piperidyl)-2-methoxy-phenyl]-1H-pyrazol-3-yl]amino]pyrazine-2-carbonitrile]",1780,<1000,10,1.8,,
"COc1cc(C2CCN(CCO)CC2)ccc1-c1cc(Nc2cnc(C#N)cn2)n[nH]1 [Example 99, 5-[[5-[4-[1-(2-hydroxyethyl)-4-piperidyl]-2-methoxy-phenyl]-1H-pyrazol-3-yl]amino]pyrazine-2-carbonitrile]",233,30,<3,0.15,,
"COc1cc(CN(C)C(C)C)ccc1-c1cc(Nc2cnc(C#N)cn2)n[nH]1 [Example 100, 5-[[5-[4-[[isopropyl(methyl)amino]methyl]-2-methoxy-phenyl]-1H-pyrazol-3-yl]amino]pyrazine-2-carbonitrile]",247,<100,3,0.053,,
